Assay results reported in the supplement of paper PMC10307832.

Tests used:
Test in all cases: relative viability (nuclei count vs DMSO), 5 days (fraction); higher = more cells survive
NCI-H2009 = test system: NCI-H2009
Procedure, shortened: (§1)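 Relative viability equals treated-well nuclei counts divided by vehicle-well nuclei counts. Counts came from 4× images of lung cancer cell lines grown in 1536-well plates for 5 days after pin-tool dosing on the day after seeding. Dosing used one drug alone or a fixed anchor-drug dose plus five library-drug doses (not always all listed) in √10 steps, and values are medians of duplicate plates.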

LOU-NH91 = test system: LOU-NH91
Procedure, shortened: as §1

NCI-H596 = test system: NCI-H596
Procedure, shortened: as §1

LC-2-ad = test system: LC-2-ad
Procedure, shortened: as §1

HCC-366 = test system: HCC-366
Procedure, shortened: as §1

HCC-44 = test system: HCC-44
Procedure, shortened: as §1

HCC-827 = test system: HCC-827
Procedure, shortened: as §1

NCI-H661 = test system: NCI-H661
Procedure, shortened: as §1

NCI-H2342 = test system: NCI-H2342
Procedure, shortened: as §1

SK-LU-1 = test system: SK-LU-1
Procedure, shortened: as §1

HARA = test system: HARA
Procedure, shortened: as §1

BEN = test system: BEN
Procedure, shortened: as §1

NCI-H1355 = test system: NCI-H1355
Procedure, shortened: as §1

NCI-H2087 = test system: NCI-H2087
Procedure, shortened: as §1

EKVX = test system: EKVX
Procedure, shortened: as §1

SK-MES-1 = test system: SK-MES-1
Procedure, shortened: as §1

NCI-H1792 = test system: NCI-H1792
Procedure, shortened: as §1

NCI-H647 = test system: NCI-H647
Procedure, shortened: as §1

NCI-H1437 = test system: NCI-H1437
Procedure, shortened: as §1

NCI-H2170 = test system: NCI-H2170
Procedure, shortened: as §1

NCI-H2228 = test system: NCI-H2228
Procedure, shortened: as §1

NCI-H1734 = test system: NCI-H1734
Procedure, shortened: as §1

NCI-H2405 = test system: NCI-H2405
Procedure, shortened: as §1

NCI-H1395 = test system: NCI-H1395
Procedure, shortened: as §1

SMILES: C[C@@H]1CN(CC(=O)Nc2ccc3c(c2)Cc2cccc(-c4cc(=O)cc(N5CCOCC5)o4)c2S3)C[C@H](C)O1 + COc1cccc2cc(-c3nc([C@H]4CC[C@H](C(=O)O)CC4)n4ncnc(N)c34)[nH]c12 [OSI-027] (partner 0.5 µM)
- relative viability (NCI-H2009; first compound 0.04 µM): 0.712
- relative viability (NCI-H2009; first compound 0.1265 µM): 0.648
- relative viability (NCI-H2009; first compound 0.4 µM): 0.613
- relative viability (NCI-H2009; first compound 4 µM): 0.448
- relative viability (LOU-NH91; first compound 0.04 µM): 0.746
- relative viability (LOU-NH91; first compound 0.1265 µM): 0.711
- relative viability (LOU-NH91; first compound 0.4 µM): 0.724
- relative viability (LOU-NH91; first compound 4 µM): 0.7
- relative viability (NCI-H596; first compound 0.04 µM): 0.899
- relative viability (NCI-H596; first compound 0.1265 µM): 0.931
- relative viability (NCI-H596; first compound 0.4 µM): 0.537
- relative viability (NCI-H596; first compound 4 µM): 0.549
- relative viability (LC-2-ad; first compound 0.04 µM): 0.984
- relative viability (LC-2-ad; first compound 0.1265 µM): 0.923
- relative viability (LC-2-ad; first compound 0.4 µM): 0.649
- relative viability (LC-2-ad; first compound 4 µM): 0.656
- relative viability (HCC-366; first compound 0.04 µM): 1.04
- relative viability (HCC-366; first compound 0.1265 µM): 0.867
- relative viability (HCC-366; first compound 0.4 µM): 0.648
- relative viability (HCC-366; first compound 4 µM): 0.502
- relative viability (HCC-44; first compound 0.04 µM): 0.328
- relative viability (HCC-44; first compound 0.1265 µM): 0.707
- relative viability (HCC-44; first compound 0.4 µM): 0.335
- relative viability (HCC-44; first compound 4 µM): 0.305
- relative viability (HCC-827; first compound 0.04 µM): 0.775
- relative viability (HCC-827; first compound 0.1265 µM): 0.738
- relative viability (HCC-827; first compound 0.4 µM): 0.509
- relative viability (HCC-827; first compound 4 µM): 0.746
- relative viability (NCI-H661; first compound 0.04 µM): 0.694
- relative viability (NCI-H661; first compound 0.1265 µM): 0.701
- relative viability (NCI-H661; first compound 0.4 µM): 0.646
- relative viability (NCI-H661; first compound 4 µM): 0.666
- relative viability (NCI-H2342; first compound 0.04 µM): 0.647
- relative viability (NCI-H2342; first compound 0.1265 µM): 0.506
- relative viability (NCI-H2342; first compound 0.4 µM): 0.52
- relative viability (NCI-H2342; first compound 4 µM): 0.58
- relative viability (SK-LU-1; first compound 0.04 µM): 0.393
- relative viability (SK-LU-1; first compound 0.1265 µM): 0.4
- relative viability (SK-LU-1; first compound 0.4 µM): 0.386
- relative viability (SK-LU-1; first compound 4 µM): 0.237
- relative viability (HARA; first compound 0.1265 µM): 0.499
- relative viability (HARA; first compound 0.4 µM): 0.251
- relative viability (HARA; first compound 4 µM): 0.412
- relative viability (BEN; first compound 0.04 µM): 0.288
- relative viability (BEN; first compound 0.1265 µM): 0.28
- relative viability (BEN; first compound 0.4 µM): 0.305
- relative viability (BEN; first compound 4 µM): 0.296
- relative viability (NCI-H1355; first compound 0.04 µM): 0.447
- relative viability (NCI-H1355; first compound 0.1265 µM): 0.472
- relative viability (NCI-H1355; first compound 0.4 µM): 0.321
- relative viability (NCI-H1355; first compound 4 µM): 0.335
- relative viability (NCI-H2087; first compound 0.04 µM): 0.847
- relative viability (NCI-H2087; first compound 0.1265 µM): 0.521
- relative viability (NCI-H2087; first compound 0.4 µM): 0.463
- relative viability (NCI-H2087; first compound 4 µM): 0.457
- relative viability (EKVX; first compound 0.04 µM): 0.713
- relative viability (EKVX; first compound 0.1265 µM): 0.676
- relative viability (EKVX; first compound 0.4 µM): 0.712
- relative viability (EKVX; first compound 4 µM): 0.618
- relative viability (SK-MES-1; first compound 0.04 µM): 0.664
- relative viability (SK-MES-1; first compound 0.1265 µM): 0.566
- relative viability (SK-MES-1; first compound 0.4 µM): 0.503
- relative viability (SK-MES-1; first compound 4 µM): 0.49
- relative viability (NCI-H1792; first compound 0.04 µM): 0.692
- relative viability (NCI-H1792; first compound 0.1265 µM): 0.639
- relative viability (NCI-H1792; first compound 0.4 µM): 0.633
- relative viability (NCI-H1792; first compound 4 µM): 0.458
- relative viability (NCI-H647; first compound 0.04 µM): 0.519
- relative viability (NCI-H647; first compound 0.1265 µM): 0.669
- relative viability (NCI-H647; first compound 0.4 µM): 0.497
- relative viability (NCI-H647; first compound 4 µM): 0.558
- relative viability (NCI-H1437; first compound 0.04 µM): 0.918
- relative viability (NCI-H1437; first compound 0.1265 µM): 0.881
- relative viability (NCI-H1437; first compound 0.4 µM): 0.864
- relative viability (NCI-H1437; first compound 4 µM): 0.747
- relative viability (NCI-H2170; first compound 0.04 µM): 0.712
- relative viability (NCI-H2170; first compound 0.1265 µM): 0.685
- relative viability (NCI-H2170; first compound 0.4 µM): 0.581
- relative viability (NCI-H2170; first compound 4 µM): 0.707
- relative viability (NCI-H2228; first compound 0.04 µM): 0.659
- relative viability (NCI-H2228; first compound 0.1265 µM): 0.705
- relative viability (NCI-H2228; first compound 0.4 µM): 0.483
- relative viability (NCI-H2228; first compound 4 µM): 0.335
- relative viability (NCI-H1734; first compound 0.04 µM): 0.655
- relative viability (NCI-H1734; first compound 0.1265 µM): 0.598
- relative viability (NCI-H1734; first compound 0.4 µM): 0.48
- relative viability (NCI-H1734; first compound 4 µM): 0.67
- relative viability (NCI-H2405; first compound 0.04 µM): 0.632
- relative viability (NCI-H2405; first compound 0.1265 µM): 0.699
- relative viability (NCI-H2405; first compound 0.4 µM): 0.528
- relative viability (NCI-H2405; first compound 4 µM): 0.615
- relative viability (NCI-H1395; first compound 0.04 µM): 0.782
- relative viability (NCI-H1395; first compound 0.1265 µM): 0.655
- relative viability (NCI-H1395; first compound 0.4 µM): 0.539
- relative viability (NCI-H1395; first compound 4 µM): 0.612
